Consider four molecules from US20210115104A1, “AMYLIN ANALOGUES” (Zealand Pharma A/S, priority 2015, published 2021).

*1 amine or outer side, *2 acyl side, *3 side chain or, on linkers, in order; H or OH if unused. Where a SMILES comes first, the peptide text is derived from it. Bridges are numbered along the chain shown (N, C = ends). [ ]: non-standard residue; d: D form. The star is where a group is joined. C20 diacid = O=C(O)CCCCCCCCCCCCCCCCCCC(=O)*; γGlu = O=C(O)[C@H](CCC(=O)[*:2])N[*:1]; Hyp = O=C(O)[C@@H]1C[C@@H](O)CN1; NMeI = CC[C@H](C)[C@H](NC)C(=O)O; Sar = CNCC(=O)O

The target of data set [1] is T1, human calcitonin receptor (hCTR2) (Homo sapiens, UniProt P30988).
T1 construct: expressed in transfected cells
T1 sequence (P30988 25-474): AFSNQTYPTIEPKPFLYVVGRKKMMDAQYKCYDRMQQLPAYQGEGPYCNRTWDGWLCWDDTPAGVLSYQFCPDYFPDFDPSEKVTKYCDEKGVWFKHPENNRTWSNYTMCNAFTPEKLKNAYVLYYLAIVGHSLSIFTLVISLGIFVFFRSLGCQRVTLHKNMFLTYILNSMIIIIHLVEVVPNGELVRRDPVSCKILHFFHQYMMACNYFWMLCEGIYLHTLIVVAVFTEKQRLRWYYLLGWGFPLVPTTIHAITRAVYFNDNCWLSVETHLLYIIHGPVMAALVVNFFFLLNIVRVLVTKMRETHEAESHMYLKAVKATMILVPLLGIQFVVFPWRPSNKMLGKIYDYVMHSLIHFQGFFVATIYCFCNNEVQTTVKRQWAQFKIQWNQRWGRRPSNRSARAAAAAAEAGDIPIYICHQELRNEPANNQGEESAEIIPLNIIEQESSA
Description: hCTR2 cAMP assay (AlphaScreen) in COS7 cells. Format: cell-based. As to conditions: cAMP induction, COS7 cells expressing hCTR2; Table 1; read-out: hCTR2 EC50. An excerpt: The cell line COS7, originating from African Green Monkey kidney fibroblast cells, was used for establishment of the stable cell lines described below. The COS7 cellular background was used due to it being RAMP naïve, and as such it provides the best available system for testing of the monomeric hCTR and different heterodimeric amylin receptor subtypes functionally generated by introduction of the individual RAMPs.
A cell line expressing the human calcitonin receptor (hCTR2) was generated in the COS7 cellular background as stable clones. In brief, hCTR2 (GI: 4502547) was amplified by PCR using primers encoding terminal restriction sites for subcloning. The 5′-end primers additionally encoded a near Kozak consensus sequence to ensure efficient translation. The fidelity of the DNA encoding the receptor was confirmed by DNA sequencing. The PCR products encoding the receptor were subcloned into a mammalian expression vector containing a neomycin (G418) resistance marker. The mammalian expression vector encoding the receptor was transfected into COS7 cells by a standard liposome transfection method. 48 hours post-transfection, cells were seeded for limited dilution cloning and selected with 1 mg/ml G418 in the culture medium. After 3 weeks, surviving colonies of hCTR2-expressing cells were picked, propagated and tested in the amylin efficacy assay as described in Example 3 below. One hCTR2-expressing clone was chosen for compound profiling.
In vitro activity of test peptides at the hCTR2 and hAMYR3 receptors was assessed by measuring the induction of cAMP following stimulation of the receptor using the AlphaScreen® cAMP Assay kit from Perkin-Elmer.
Briefly, COS7 cells expressing hCTR2 (see Example 2, above) were seeded at 30-40,000 cells per well in 96-well microtiter plates coated with 0.01% poly-L-lysine, and grown for 1 day in culture in 100 μl growth medium [DMEM, 10% FCS, Penicillin (100 IU/ml), Streptomycin (100 μg/ml)]. On the day of analysis, growth medium was removed and the cells were washed once with 200 μl Tyrode buffer [Tyrode's Salts (9.6 g/I), 10 mM HEPES, pH 7.4]. Cells were incubated in 100 μl Tyrode buffer containing increasing concentrations of test peptides, 100 µM IBMX and 0.1% casein for 15 min at 37° C. The reaction was stopped by carefully decanting off the compound/buffer medium and replacing it with lysis/detection buffer (80 μl 0.1% w/v BSA, 5 mM HEPES, 0.3% v/v Tween-20 in deionized water). After incubation at room temperature for 10 min., the cAMP content of the resulting cell lysate was estimated according to the AlphaScreen® cAMP Assay manufacturer's instructions. EC50 values were estimated by computer-aided curve fitting using the 4-parameter logistic (4PL) non-linear model.
Background: Changes in cAMP serve as a functional read-out for many G protein-coupled receptors.

A short description of data set [2]: Assessment of physical stability (Thioflavin T fibrillation). Format: physicochemical. Set-up: key: FND = fibrillation not detected; FD = fibrillation detected. The following applies: 1 mg/ml, 40° C., ThT; for Fibrillation pH 4.0 (Ac): 50 mM acetate buffer pH 4.0, 96 hours; for Fibrillation pH 7.0 (His): 50 mM histidine buffer pH 7.0, 96 hours; for Fibrillation pH 7.0 (Phos.): 50 mM phosphate buffer pH 7.0, 96 hours. A digest of the protocol:
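Fibrillation lag-time, in hours, taken where regressions of the initial stable phase and the growth phase intersect. ThT (40 μM) fluorescence monitored at 40 °C for 96 h, 10-min reads each preceded by 300 s mixing. Peptide at 1 mg/ml in 50 mM buffers: phosphate or histidine pH 7.0, acetate pH 4.0.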

Data set [3] in a line: Assessment of chemical stability (RP-HPLC normalized purity). Format: physicochemical. As to conditions: 7 days, 40° C., Table 1; for Normalized purity after 7 days, 40° C., pH 4: pH 4, 0.2 mg/ml; for Normalized purity after 7 days, 40° C., pH 6: pH 6, 0.2 mg/ml; for Normalized purity after 7 days, 40° C., pH 7.5: pH 7.5, 0.2 mg/ml; for Normalized purity after 7 days, 40° C., pH 9: pH 9, 0.2 mg/ml. A digest of the protocol: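 Purity after 7 days at 40° C is expressed relative to T=0 (set to 100) for each pH. Samples at 0.2 mg/ml, pH 4, 6, 7.5 or 9, analyzed by RP-HPLC with UV 220 nm on C8 (ammonium formate) or C18 (TFA) gradients.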

Broadly, the EC50 is the concentration needed to bring the measured effect to its halfway point. In the case of `CC[C@H](C)[C@@H](C(=O)N[C@@H](CC(C)C)C(=O)N[C@@H](CO)C(=O)N[C@@H](CO)C(=O)N[C@H](C(=O)N[C@@H](CCC(=O)O)C(=O)N[C@H](C(=O)NCC(=O)N[C@@H](CO)C(=O)N[C@@H](CC(N)=O)C(=O)N[C@H](C(=O)N1CCC[C@H]1C(N)=O)[C@@H](C)O)C(C)C)[C@@H](C)O)N(C)C(=O)[C@H](C)NC(=O)CN(C)C(=O)[C@H](Cc1ccccc1)NC(=O)[C@H](CO)NC(=O)[C@H](CO)NC(=O)[C@H](CCCNC(=N)N)NC(=O)[C@H](Cc1c[nH]cn1)NC(=O)[C@H](CC(C)C)NC(=O)[C@H](Cc1ccccc1)NC(=O)[C@H](Cc1c[nH]cn1)NC(=O)[C@H](C)NC(=O)[C@H](CC(C)C)NC(=O)[C@H](CCCNC(=N)N)NC(=O)[C@H](CCC(N)=O)NC(=O)[C@@H](NC(=O)[C@H](C)NC(=O)[C@@H]1CSSC[C@H](NC(=O)[C@H](CCCNC(=N)N)NC(=O)CC[C@H](NC(=O)CCCCCCCCCCCCCCCCCCC(=O)O)C(=O)O)C(=O)N[C@@H](CC(N)=O)C(=O)N[C@@H]([C@@H](C)O)C(=O)N[C@@H](C)C(=O)N[C@@H]([C@@H](C)O)C(=O)N1)[C@@H](C)O` [Compound 16, [19CD]-isoGlu-R-C( )-NTAT-C( )-ATQRLAHFLHRSSF-Gly(Me)-A-Ile(Me)-LSSTEVGSNTP-NH2] ({C20 diacid-γGlu}-RCNTATCATQRLAHFLHRSSF[Sar]A[NMeI]LSSTEVGSNTP-NH2; disulfide 2-7), the EC50 in data set [1] was 0.073 nM. For the same molecule, in data set [2], the “Fibrillation pH 4.0 (Ac)” value was “FD”, the “Fibrillation pH 7.0 (His)” value is listed as “FD” and the “Fibrillation pH 7.0 (Phos.)” value is “FND”. In data set [3], the “Normalized purity after 7 days, 40° C., pH 4” value is reported as “A (A = >90%)”; the “Normalized purity after 7 days, 40° C., pH 6” value was “A (A = >90%)”; the “Normalized purity after 7 days, 40° C., pH 7.5” value is on record as “A (A = >90%)”; the “Normalized purity after 7 days, 40° C., pH 9” value is recorded as “B (B = 70-90%)”.
As to `CC[C@H](C)[C@@H](C(=O)N[C@@H](CC(C)C)C(=O)N[C@@H](CO)C(=O)N[C@@H](CO)C(=O)N[C@H](C(=O)N[C@@H](CCC(=O)O)C(=O)N[C@H](C(=O)NCC(=O)N[C@@H](CO)C(=O)N[C@@H](CC(N)=O)C(=O)N[C@H](C(=O)N1C[C@H](O)C[C@H]1C(N)=O)[C@@H](C)O)C(C)C)[C@@H](C)O)N(C)C(=O)[C@H](C)NC(=O)CN(C)C(=O)[C@H](Cc1ccccc1)NC(=O)[C@H](CO)NC(=O)[C@H](CO)NC(=O)[C@H](CCCNC(=N)N)NC(=O)[C@@H](NC(=O)[C@H](CC(C)C)NC(=O)[C@H](Cc1ccccc1)NC(=O)[C@H](Cc1c[nH]cn1)NC(=O)[C@H](C)NC(=O)[C@H](CC(C)C)NC(=O)[C@H](CCCNC(=N)N)NC(=O)[C@H](CCC(=O)O)NC(=O)[C@@H](NC(=O)[C@H](C)NC(=O)[C@@H]1CSSC[C@H](NC(=O)[C@H](CCCNC(=N)N)NC(=O)CC[C@H](NC(=O)CCCCCCCCCCCCCCCCCCC(=O)O)C(=O)O)C(=O)NCC(=O)N[C@@H]([C@@H](C)O)C(=O)N[C@@H](C)C(=O)N[C@@H]([C@@H](C)O)C(=O)N1)[C@@H](C)O)[C@@H](C)O` [Compound 18, [19CD]-isoGlu-R-C( )-GTAT-C( )-ATERLAHFLTRSSF-Gly(Me)-A-Ile(Me)-LSSTEVGSNT-Hyp-NH2] ({C20 diacid-γGlu}-RCGTATCATERLAHFLTRSSF[Sar]A[NMeI]LSSTEVGSNT[Hyp]-NH2; disulfide 2-7), the EC50 in data set [1] was determined as 0.12 nM. In data set [2], the “Fibrillation pH 4.0 (Ac)” value is recorded as “FND”, the “Fibrillation pH 7.0 (His)” value was “FD” and the “Fibrillation pH 7.0 (Phos.)” value is given as “FD”.
Take `CC[C@H](C)[C@@H](C(=O)N[C@@H](CC(C)C)C(=O)N[C@@H](CO)C(=O)N[C@@H](CO)C(=O)N[C@H](C(=O)N[C@@H](CCC(=O)O)C(=O)N[C@H](C(=O)NCC(=O)N[C@@H](CO)C(=O)N[C@@H](CC(N)=O)C(=O)N[C@H](C(=O)N1C[C@H](O)C[C@H]1C(N)=O)[C@@H](C)O)C(C)C)[C@@H](C)O)N(C)C(=O)[C@H](C)NC(=O)CN(C)C(=O)[C@H](Cc1ccccc1)NC(=O)[C@H](CO)NC(=O)[C@H](CO)NC(=O)[C@H](CCCNC(=N)N)NC(=O)[C@H](CCC(N)=O)NC(=O)[C@H](CC(C)C)NC(=O)[C@H](Cc1ccccc1)NC(=O)[C@H](Cc1c[nH]cn1)NC(=O)[C@H](C)NC(=O)[C@H](CC(C)C)NC(=O)[C@H](CCCNC(=N)N)NC(=O)[C@H](CCC(N)=O)NC(=O)[C@@H](NC(=O)[C@H](C)NC(=O)[C@@H]1CSSC[C@H](NC(=O)[C@H](CCCNC(=N)N)NC(=O)CC[C@H](NC(=O)CCCCCCCCCCCCCCCCCCC(=O)O)C(=O)O)C(=O)N[C@@H](CC(N)=O)C(=O)N[C@@H]([C@@H](C)O)C(=O)N[C@@H](C)C(=O)N[C@@H]([C@@H](C)O)C(=O)N1)[C@@H](C)O` [Compound 58, [19CD]-isoGlu-R-C( )-NTAT-C( )-ATQRLAHFLQRSSF-Gly(Me)-A-Ile(Me)-LSSTEVGSNT-Hyp-NH2] ({C20 diacid-γGlu}-RCNTATCATQRLAHFLQRSSF[Sar]A[NMeI]LSSTEVGSNT[Hyp]-NH2; disulfide 2-7): the EC50 in data set [1] is 0.05 nM. Moreover, in data set [2], the “Fibrillation pH 4.0 (Ac)” value was “FND”, the “Fibrillation pH 7.0 (His)” value was “FD” and the “Fibrillation pH 7.0 (Phos.)” value is on record as “FND”. In addition, in data set [3], the “Normalized purity after 7 days, 40° C., pH 4” value is “A (A = >90%)”; the “Normalized purity after 7 days, 40° C., pH 6” value is listed as “A (A = >90%)”; the “Normalized purity after 7 days, 40° C., pH 7.5” value was “B (B = 70-90%)”; the “Normalized purity after 7 days, 40° C., pH 9” value is given as “B (B = 70-90%)”.
For the molecule `CC[C@H](C)[C@@H](C(=O)N[C@@H](CC(C)C)C(=O)N[C@@H](CO)C(=O)N[C@@H](CO)C(=O)N[C@H](C(=O)N[C@@H](CCC(=O)O)C(=O)N[C@H](C(=O)NCC(=O)N[C@@H](CO)C(=O)N[C@@H](CO)C(=O)N[C@H](C(=O)N1CCC[C@H]1C(N)=O)[C@@H](C)O)C(C)C)[C@@H](C)O)N(C)C(=O)[C@H](C)NC(=O)CN(C)C(=O)[C@H](Cc1ccccc1)NC(=O)[C@H](CO)NC(=O)[C@H](CO)NC(=O)[C@H](CCCNC(=N)N)NC(=O)[C@H](CCC(=O)O)NC(=O)[C@H](CC(C)C)NC(=O)[C@H](Cc1ccccc1)NC(=O)[C@H](Cc1c[nH]cn1)NC(=O)[C@H](C)NC(=O)[C@H](CC(C)C)NC(=O)[C@H](CCCNC(=N)N)NC(=O)[C@H](CCC(N)=O)NC(=O)[C@@H](NC(=O)[C@H](C)NC(=O)[C@@H]1CSSC[C@H](NC(=O)[C@H](CCCNC(=N)N)NC(=O)CC[C@H](NC(=O)CCCCCCCCCCCCCCCCCCC(=O)O)C(=O)O)C(=O)N[C@@H](CC(N)=O)C(=O)N[C@@H]([C@@H](C)O)C(=O)N[C@@H](C)C(=O)N[C@@H]([C@@H](C)O)C(=O)N1)[C@@H](C)O` [Compound 84, [19CD]-isoGlu-R-C( )-NTAT-C( )-ATQRLAHFLERSSF-Gly(Me)-A-Ile(Me)-LSSTEVGSSTP-NH2] ({C20 diacid-γGlu}-RCNTATCATQRLAHFLERSSF[Sar]A[NMeI]LSSTEVGSSTP-NH2; disulfide 2-7), the EC50 in data set [1] is 0.15 nM.
